Laboratory results from article PMC10819521 (Pharmaceutics, 2024).
Where “and” joins values, the source holds several entries; their conditions need not be identical. Equal entries are not always repeated.

How the values were obtained:
[1] = system: voltage-gated calcium channels; experiment: Calcium channel blockade (FLIPR Calcium 6 indicator, SH-SY5Y cells); assay type: cell-based, human; conditions: compounds at 10 µM, KCl/CaCl2 stimulation, n.i. = no inhibition
Method: Calcium channel blockade. Evaluation of the calcium channel blockade of compounds 4a–l was performed using the FLIPR Calcium 6 indicator according to a previously established protocol. Briefly, human neuroblastoma cell line SH-SY5Y seeded out on 96-well plate were treated with fluorescent calcium indicator (FLIPR Calcium 6, Molecular Devices). Cells were incubated with indicator for 2 h at 37 °C, facilitating internalization of the indicator. Subsequently, cells were exposed to nimodipine (10 µM, used as reference inhibitor), DMSO (0.1%, used as vehicle control) or our compounds of interest (10 µM) for 10 min also at 37 °C. Following that, cell fluorescence was recorded using a microplate reader (λEx = 485 nm; λEm = 525 nm). Baseline fluorescence was recorded for 5 s. Afterwards, cells were stimulated by the addition of the solution of KCl and CaCl2 (90 and 5 mM, respectively) in order to induce the opening of voltage-gated calcium channels. An increase in fluorescence of calcium indicator after inducing calcium flux was recorded for another 30 s. Data were collected from three independent experiments, with eight technical replicates per experiment. Fluorescence intensity values were normalized to the baseline recorded before the induction of calcium flux. The percentage of inhibition was calculated as a reduction of normalized calcium flux in comparison with the DMSO vehicle control. Outliers were detected using the Grubbs test, and any outlying values were excluded from further analysis.
Calcium channel blockade. The Ca^2+ channel blocking capacity of compounds 4a–l and nimodipine, used as a standard at a concentration of 10 μM, was evaluated according to an established methodology.

[2] = molecular target: T1, Human recombinant cathepsin K (Homo sapiens, UniProt P43235); experiment: Cathepsin K assay (substrate Z-Leu-Arg-AMC); assay type: biochemical; conditions: 50 µM inhibitor, 60 min, 100% = no inhibitor, n.i. = residual activity ≥ 95%; for remaining activity at 50 µM: read-out: Percentage residual activity of human cathepsin K
T1 construct: purchased Enzo Life Sciences
T1 sequence (P43235 115-329): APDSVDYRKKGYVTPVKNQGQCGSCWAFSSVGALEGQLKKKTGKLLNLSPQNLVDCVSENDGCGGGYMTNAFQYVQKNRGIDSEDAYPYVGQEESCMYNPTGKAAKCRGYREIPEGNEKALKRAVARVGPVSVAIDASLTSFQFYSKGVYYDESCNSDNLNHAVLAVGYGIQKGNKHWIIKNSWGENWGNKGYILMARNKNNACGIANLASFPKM
Method: (§1) Cathepsin assays. Assays with human cathepsins B, S, L, and K were carried out as described previously. Stock solutions of substrates and inhibitors were prepared in DMSO. The final DMSO concentration was 2%. All test compounds were investigated in duplicate at a concentration of 50 µM to determine residual activities based on endpoints of substrate consumption after 60 min. Ki values were obtained in duplicate measurements with six different inhibitor concentrations, and 60-min-progress curves were analyzed by linear regression. IC50 values were obtained by non-linear regression using the equation vi = v0/(1 + ([I]/IC50), where vi is the product formation rate at different inhibitor concentrations, v0 is the uninhibited product formation rate, [I] is the inhibitor concentration, and IC50 is the half-maximal inhibitory concentration. IC50 values are transformed to Ki values using the Cheng-Prusoff equation.
Human recombinant cathepsin K (Enzo Life Sciences) was assayed fluorometrically (FLUOstar Optima plate reader, BMG Labtech) with an emission wavelength of 360 nm and an absorption wavelength of 460 nm. The assay buffer was 100 mM sodium citrate pH 5.0, 100 mM NaCl, 1 mM EDTA, 0.01% CHAPS. For activation, an enzyme stock solution was diluted with assay buffer containing 5 mM DTT and incubated for 30 min at 37 °C. The final concentration of the chromogenic substrate Z-Leu-Arg-AMC was 40 µM (13.33 × Km).
(§2) Cathepsins inhibition. Compounds 4a–l were then evaluated for their ability to inhibit Cat S. Besides Cat S, the set of assays included three related human cathepsins, B, L, and K, all members of the class of lysosomal cysteine proteases (see Table S1 in the Supporting Information). Following reported procedures, [39, 40, 41] percentage or residual activities were determined using chromogenic or fluorogenic peptide substrates, with endpoints measured after 60 min of substrate consumption. To determine Ki values, progress curves were followed over 60 min and analyzed by linear regression. Ki values were then obtained by non-linear regression.

[3] = Oxygen radical absorbance capacity assay (ORAC-FL); conditions: ORAC-FL method; mean ± SEM
Method: Oxygen radical absorbance capacity assay. The evaluation of the antioxidant activity of compounds 4a–l was carried out using the previously established ORAC-FL method, and detailed information is provided in the supporting information.
Antioxidant assay. The antioxidant assessment was conducted by evaluating the compounds 4a–l through the determination of oxygen radical absorbance capacity (ORAC) using the ORAC-Fluorescein (ORAC-FL) method […]
Oxygen radical absorbance capacity assay.
ORAC-FL method, using fluorescein as a fluorescent probe. Shortly, fluorescein and the antioxidants
2,2'-Azobis(amidinopropane)
(emission wavelength) every minute for 1 hour. […]

[4] = molecular target: T2, Human isolated cathepsin B (Homo sapiens, UniProt P07858); experiment: Cathepsin B assay (chromogenic substrate Z-Arg-Arg-pNA); assay type: biochemical; conditions: 50 µM inhibitor, 60 min, 100% = no inhibitor, n.i. = residual activity ≥ 95%; for remaining activity at 50 µM: read-out: Percentage residual activity of human cathepsin B
T2 construct: Human isolated cathepsin B (Calbiochem) was assayed spectrophotometrically; purchased Calbiochem
Method: as §1
(§3) Human isolated cathepsin B (Calbiochem) was assayed spectrophotometrically (Cary 50 Bio, Varian) at 405 nm and 37 °C. Assay buffer was 100 mM sodium phosphate buffer pH 6.0, 100 mM NaCl, 5 mM EDTA, 0.01% Brij 35. For activation, an enzyme stock solution was diluted with assay buffer containing 5 mM DTT and incubated for 30 min at 37 °C. The final concentration of the chromogenic substrate Z-Arg-Arg-pNA was 500 µM (0.45 × Km).
as §2

[5] = molecular target: T3, Human recombinant cathepsin S (Homo sapiens, UniProt P25774); experiment: Cathepsin S assay (fluorogenic substrate Z-Phe-Arg-AMC); assay type: biochemical; conditions: for remaining activity at 50 µM: 50 µM inhibitor, 60 min, 100% = no inhibitor, n.i. = residual activity ≥ 95%, read-out: Percentage residual activity of human cathepsin S; for Ki: Ki ± SEM, n.i. = no inhibition, residual activity ≥ 95% at 50 μM, read-out: CatS Ki
T3 construct: purchased Enzo Life Sciences
Method: as §1
Human recombinant cathepsin S (Enzo Life Sciences) was assayed fluorometrically (FLUOstar Optima plate reader, BMG Labtech) at 25 °C with an emission wavelength of 360 nm and an absorption wavelength of 460 nm. The assay buffer was 100 mM sodium phosphate buffer pH 6.0, 100 mM NaCl, 5 mM EDTA, 0.01% Brij 35. For activation, an enzyme stock solution was diluted with assay buffer containing 5 mM DTT and incubated for 60 min at 37 °C.
as §2

[6] = molecular target: T4, Human isolated cathepsin L (Homo sapiens, UniProt P07711); experiment: Cathepsin L assay (chromogenic substrate Z-Phe-Arg-pNA); assay type: biochemical; conditions: 50 µM inhibitor, 60 min, 100% = no inhibitor, n.i. = residual activity ≥ 95%; for remaining activity at 50 µM: read-out: Percentage residual activity of human cathepsin L
T4 construct: Human isolated cathepsin L (Enzo Life Sciences) was assayed spectrophotometrically; purchased Enzo Life Sciences
Method: as §1
as §3, with “L (Enzo Life Sciences)” for “B (Calbiochem)”, “The assay” for “Assay”, “EDTA, and” for “EDTA,”, “Z-Phe-Arg-pNA” for “Z-Arg-Arg-pNA”, “100” for “500”, “(5.88” for “(0.45”
as §2

Nrf2-ARE = experiment: Nrf2 transcriptional activation, cell-based luciferase assay; conditions: 24 h; for EC50: CD = concentration required to double the specific activity of the luciferase reporter, read-out: Nrf2 Induction Potencies CD
Method: Nrf2 transcriptional activation potencies. The assessment of the Nrf2 transcriptional activation potencies of compounds 4a–l was carried out using the previously described method, and detailed information is provided in the supporting information.
Nrf2 transcriptional activation potencies of compounds 4a–l. […] AREc32 cells were exposed to escalating concentrations of each compound (1, 5, 10, 25, 50, 100, 125, and 150 μM) for 24 h to reach the cytotoxic threshold, followed by measurements of luciferase activity. Melatonin was used as a positive control.
4e H Cl H n.i. 76 n.i. […]
Nrf2 transcriptional activation potencies. The stable NRF2/ARE luciferase reporter HEK293 cell line
(Promega) according to the manufacturer's instructions. To assess cellular viability, the stable

T4 sequence (P07711 114-333): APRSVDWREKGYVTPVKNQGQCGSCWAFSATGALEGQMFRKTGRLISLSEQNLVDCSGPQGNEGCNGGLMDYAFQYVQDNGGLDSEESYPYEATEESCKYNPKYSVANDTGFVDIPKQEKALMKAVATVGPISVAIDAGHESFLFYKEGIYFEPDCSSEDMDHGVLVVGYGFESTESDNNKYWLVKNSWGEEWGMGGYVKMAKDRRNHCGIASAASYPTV
T3 sequence (P25774 115-331): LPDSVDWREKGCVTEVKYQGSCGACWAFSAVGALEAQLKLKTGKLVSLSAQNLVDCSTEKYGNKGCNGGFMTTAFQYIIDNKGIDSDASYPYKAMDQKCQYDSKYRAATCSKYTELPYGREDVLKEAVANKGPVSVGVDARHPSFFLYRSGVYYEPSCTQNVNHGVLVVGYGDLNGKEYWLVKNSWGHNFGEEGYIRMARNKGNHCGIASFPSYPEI

Percentage residual activity of human cathepsin K [2] | Percentage residual activity of human cathepsin B [4] | remaining activity at 50 µM [5] | Percentage residual activity of human cathepsin L [6] | remaining activity at 50 µM [2] | remaining activity at 50 µM [6] | remaining activity at 50 µM [4] | Ki [5] | EC50 (Nrf2-ARE) | Structure (SMILES) | Calcium Channel Blockade (%) [1] | ORAC [3] | Induction of the Nrf2 pathway (luciferase activity) (Nrf2-ARE; concentrations up to 150 μM, versus non-treated cells)
n.i. | n.i. | 68% | n.i. |  |  |  |  |  | C#CCNC(=O)C1=C(C)NC(C)=C(C(=O)NCC#C)C1c1ccccc1 [4a, 2,6-Dimethyl-4-phenyl-N3,N5-bis(prop-2-yn-1-yl)-1,4-dihydropyridine-3,5-dicarboxamide] | 12% | 0.86 Trolox equivalents and 0.86 ± 0.05 Trolox equivalents | no significant activity
 | n.i. | 77% |  | 62% | 90% |  |  |  | C#CCNC(=O)C1=C(C)NC(C)=C(C(=O)NCC#C)C1c1cccc2nonc12 [4d, 4-(2,1,3-Benzoxadiazol-4-yl)-2,6-dimethyl-N3,N5-bis(prop-2-yn-1-yl)-1,4-dihydropyridine-3,5-dicarboxamide] | 10% | 1.23 ± 0.23 Trolox equivalents | 
 | n.i. | 76% | n.i. | 85% |  |  |  |  | C#CCNC(=O)C1=C(C)NC(C)=C(C(=O)NCC#C)C1c1ccccc1Cl [4e, 4-(2-Chlorophenyl)-2,6-dimethyl-N3,N5-bis(prop-2-yn-1-yl)-1,4-dihydropyridine-3,5-dicarboxamide] | n.i. | 1.15 ± 0.02 Trolox equivalents | 
n.i. |  | 67% |  |  | 86% | 71% |  |  | C#CCNC(=O)C1=C(C)NC(C)=C(C(=O)NCC#C)C1c1ccccc1OC [4f, 4-(2-Methoxyphenyl)-2,6-dimethyl-N3,N5-bis(prop-2-yn-1-yl)-1,4-dihydropyridine-3,5-dicarboxamide] | 19% | 1.34 ± 0.20 Trolox equivalents | 
 |  | 70% | n.i. | 90% |  | 88% |  |  | C#CCNC(=O)C1=C(C)NC(C)=C(C(=O)NCC#C)C1c1ccccc1Br [4g, 4-(2-Bromophenyl)-2,6-dimethyl-N3,N5-bis(prop-2-yn-1-yl)-1,4-dihydropyridine-3,5-dicarboxamide] | n.i. | 1.43 ± 0.03 Trolox equivalents | 
n.i. |  | 54% |  |  | 87% | 71% | 55.3 ± 7.4 µM |  | C#CCNC(=O)C1=C(C)NC(C)=C(C(=O)NCC#C)C1c1cccc(Br)c1 [4h, 4-(3-Bromophenyl)-2,6-dimethyl-N3,N5-bis(prop-2-yn-1-yl)-1,4-dihydropyridine-3,5-dicarboxamide] | 7% | 1.28 ± 0.05 Trolox equivalents | 
 |  | 58% |  | 65% | 91% | 87% | 69.3 ± 5.2 µM | 96 ± 6.1 µM | C#CCN(C)C(=O)C1=C(C)NC(C)=C(C(=O)N(C)CC#C)C1c1ccccc1Cl [4i, 4-(2-Chlorophenyl)-N2,N3,5,6-tetramethyl-N3,N5-bis(prop-2-yn-1-yl)-1,4-dihydropyridine-3,5-dicarboxamide] | 11% | 1.93 Trolox equivalents and 1.93 ± 0.08 Trolox equivalents | 
 |  | 69% |  | 81% | 87% | 90% |  | 77.2 ± 7.1 µM | C#CCN(C)C(=O)C1=C(C)NC(C)=C(C(=O)N(C)CC#C)C1c1cccc(Cl)c1Cl [4j, 4-(2,3-Dichlorophenyl)-N2,N3,5,6-tetramethyl-N3,N5-bis(prop-2-yn-1-yl)-1,4-dihydropyridine-3,5-dicarboxamide] | 12% | 1.82 Trolox equivalents and 1.82 ± 0.05 Trolox equivalents | 
 |  |  |  |  |  |  |  | 66.4 ± 16.4 µM | COc1ccc2[nH]cc(CCNC(C)=O)c2c1 [melatonin, reference compound] |  |  | 
 |  |  |  |  |  |  |  |  | COCCOC(=O)C1=C(C)NC(C)=C(C(=O)OC(C)C)C1c1cccc([N+](=O)[O-])c1 (stereo not shown) [nimodipine, reference compound] | 37% |  | 
